pKi: −log10 of the molar value. Where a name gives a salt, the structure may show the parent alone.
Tests used:
[1] = molecular target: A2A receptor (Homo sapiens, UniProt P29274); details: cited from earlier work
[2] = test system: patient CLL cells; test: Apoptosis assay (Hoechst 33342, flow cytometry, 48 h); assay type: cell-based, human; parameters: unit not given here; details: CGS-21680 0 μM
Source text: Blood samples were obtained in heparinized tubes with IRB-approved consent from flow cytometry-confirmed B-CLL patients that were either untreated or for whom at least 1 month had elapsed since chemotherapy. Patients with active infections or other serious medical conditions were not included in this study. Patients with white blood cell counts of less than 15,000/μl by automated analysis were excluded from this study. Whole blood was layered on Ficoll-Hystopaque (Sigma), and peripheral blood mononuclear cells (PBMC) isolated after centrification. […] One million cells were stained with anti-CD5-PE and anti-CD19-PE-Cy5 (Becton Dickenson, Franklin Lakes N.J.). The percentage of B-CLL cells was defined as the percentage of cells doubly expressing CD5 and CDl9, as determined by flow cytometry. […] Compound master plates were diluted 1:50 into complete media to create working compound dilutions. Compound crosses were then created by diluting two working dilution plates 1:10 into each plate of cells. […] Hoechst 33342 (Molecular Probes, Eugene Oreg.) at a final concentration of 0.25 μg/1 mL was added to each well, and the cells incubated at 37° C. for an additional ten minutes before being placed on ice until analysis. Plates were then analyzed on a LSR-II flow cytometer (Becton Dickenson, Franklin Lakes, N.J.) equipped with the High Throughput Sampling (HTS) option in high throughput mode. […] The apoptotic fraction was calculated using FlowJo software (Tree Star Inc., Ashland, Oreg.) after excluding debris by a FSC/SSC gate and subsequently gating for cells that accumulate the Hoechst dye.

Sequence of A2A receptor (P29274 whole entry): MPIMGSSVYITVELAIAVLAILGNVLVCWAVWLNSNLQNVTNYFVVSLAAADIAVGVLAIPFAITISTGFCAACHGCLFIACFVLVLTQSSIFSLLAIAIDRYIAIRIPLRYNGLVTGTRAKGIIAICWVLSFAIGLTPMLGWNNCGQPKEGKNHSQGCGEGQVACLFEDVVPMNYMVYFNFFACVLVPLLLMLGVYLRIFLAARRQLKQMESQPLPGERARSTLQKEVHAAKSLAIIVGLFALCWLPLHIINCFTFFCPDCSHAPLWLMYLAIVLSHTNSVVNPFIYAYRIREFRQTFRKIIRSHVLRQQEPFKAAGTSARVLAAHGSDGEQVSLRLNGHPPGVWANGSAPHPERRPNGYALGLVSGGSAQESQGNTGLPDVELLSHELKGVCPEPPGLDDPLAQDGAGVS

Row | SMILES | pKi [1] | Induction of apoptosis ([2]; Trequinsin 0.22 μM) | Induction of apoptosis ([2]; Trequinsin 2 μM) | Induction of apoptosis ([2]; Trequinsin […])
1 | CCCCC#Cc1nc(N)c2ncn([C@@H]3O[C@H](C(=O)NCC)[C@@H](O)[C@H]3O)c2n1 [HE-NECA, hexynyladenosine-5′-N-ethylcarboxamide] | ~7.57 |  |  | 
2 | COc1cc2c(cc1OC)-c1cc(=Nc3c(C)cc(C)cc3C)n(C)c(=O)n1CC2 [Trequinsin hydrochloride, 2,3,6,7-tetrahydro-9,10-dimethoxy-3-methyl-2-((2,4,6-trimethylphenyl)imino)-4H-pyrimido(6,1-a)isoquinolin-4-one] |  | 8.9 | 19 | 9.9
